ChEMBL document CHEMBL1201862, “PubChem BioAssay data set” (2004)
The source made the active and inactive calls.

tested on: Streptococcus sp. 'group A'; assay: growth inhibition of control SK(-) GAS strain, dose response, counter-screen for streptokinase expression inhibitor project, luminescence, kanamycin, BacTiterGlo, confirmation (AID 1900); type: functional, organism-based; conditions: not given

| Structure (SMILES) | EC50 |
| --- | --- |
| Cc1cc(/C=C2\C(=N)N3N=C(S(C)(=O)=O)SC3=NC2=O)c(C)n1Cc1ccccc1 | 4.19 µM (active) |
| COc1ccc(C(=O)OCC(=O)Nc2nnc(-c3ccccc3)o2)cc1 | 5.97 µM (active) |

biological target: Cytochrome P450 2C19 (Homo sapiens, UniProt P33261); assay: Cytochrome panel assay with activity outcomes. Panel member name: p450-cyp2c19 Compounds with AC50 equal or less than 10 uM are considered active; type: functional; conditions: not given
Sequence (P33261 whole entry): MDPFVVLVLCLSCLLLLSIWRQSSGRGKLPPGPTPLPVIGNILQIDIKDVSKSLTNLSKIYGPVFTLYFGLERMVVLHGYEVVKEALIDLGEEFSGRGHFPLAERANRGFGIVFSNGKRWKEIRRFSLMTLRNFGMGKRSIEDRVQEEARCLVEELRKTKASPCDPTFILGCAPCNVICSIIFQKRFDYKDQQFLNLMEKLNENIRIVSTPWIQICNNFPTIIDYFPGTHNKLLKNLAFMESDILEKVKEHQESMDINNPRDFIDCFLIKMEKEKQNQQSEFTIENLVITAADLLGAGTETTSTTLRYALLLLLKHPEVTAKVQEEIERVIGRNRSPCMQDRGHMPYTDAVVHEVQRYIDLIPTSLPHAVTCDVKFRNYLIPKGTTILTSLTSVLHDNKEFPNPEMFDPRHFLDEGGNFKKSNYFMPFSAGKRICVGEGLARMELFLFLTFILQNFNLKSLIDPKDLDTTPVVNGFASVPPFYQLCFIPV

| Structure (SMILES) | AC50 |
| --- | --- |
| CCn1cnc2c(Nc3cccc(Cl)c3)nc(N[C@@H]3CCCC[C@H]3N)nc21 | inconclusive |

same assay, conditions: read-out: AC50

| Structure (SMILES) | AC50 |
| --- | --- |
| COCc1c(C(=O)OCC(=O)N2c3ccccc3NC(=O)C2(C)C)oc2ccccc12 | 20 µM (inconclusive) |
| Cc1cc(SCC(=O)c2ccc(Br)cc2)cc(C)[o+]1 | 0.398 µM (inconclusive) |
| CCOC(=O)c1ccc(NC(=O)C2CCCO2)cc1 (stereo not drawn) | 14.1 µM (inconclusive) |
| O=S(=O)(c1ccccc1)c1cnn2c(C(F)(F)F)cc(-c3ccccc3)nc12 | 39.8 µM (inconclusive) |
| NC(=NOC(=O)Cc1ccc(-c2ccccc2)cc1)c1cccc([N+](=O)[O-])c1 | 2.82 µM (inconclusive) |
| COc1ccc(NC(=O)OC(C)C)cc1 | 28.2 µM (inconclusive) |
| Cn1cc(-c2nc3cncnc3n(-c3ccccc3)c2=O)c2ccccc21 | 39.8 µM (inconclusive) |
| Oc1ccc(Oc2nc(N3CCOCC3)nc(N3CCOCC3)n2)nn1 | 2.82 µM (inconclusive) |
| C[C@H](N[C@@H](C)COc1ccccc1)[C@H](O)c1ccc(O)cc1 [ISOXSUPRINE] | 15.8 µM (inconclusive) |

biological target: Cytochrome P450 2D6 (Homo sapiens, UniProt P10635); conditions: not given;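 note: CYP2D6 member of a cytochrome P450 panel assay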
Sequence (P10635 whole entry): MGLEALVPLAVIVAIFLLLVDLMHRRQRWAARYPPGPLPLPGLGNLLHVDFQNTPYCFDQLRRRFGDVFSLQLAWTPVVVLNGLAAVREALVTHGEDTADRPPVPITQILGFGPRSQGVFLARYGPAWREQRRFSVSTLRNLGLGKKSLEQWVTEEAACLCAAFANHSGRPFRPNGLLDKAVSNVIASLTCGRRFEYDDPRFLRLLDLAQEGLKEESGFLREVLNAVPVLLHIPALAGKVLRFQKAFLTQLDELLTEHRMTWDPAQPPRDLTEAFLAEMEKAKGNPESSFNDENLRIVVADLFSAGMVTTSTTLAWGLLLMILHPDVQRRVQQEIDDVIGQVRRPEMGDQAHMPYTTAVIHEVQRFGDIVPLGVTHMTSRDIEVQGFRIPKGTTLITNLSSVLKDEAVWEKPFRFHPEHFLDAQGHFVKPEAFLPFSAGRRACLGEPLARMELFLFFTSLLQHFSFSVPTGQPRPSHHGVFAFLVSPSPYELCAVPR

| Structure (SMILES) | AC50 |
| --- | --- |
| Cc1ccc(C(=N)c2ccccc2Cc2cccc3ccccc23)c2ccccc12 | 2.51 µM (inconclusive) |
| N#Cc1ccc(CN2CCCC3(CCN(C(=O)c4cnccn4)CC3)C2)cc1 | 10 µM (inconclusive) |
| C#CCOC(=O)Nc1ccc(=O)n(Cc2c(Cl)cccc2Cl)c1 | 20 µM (inconclusive) |
| COC(=O)[C@@]1(Cc2ccccc2)[C@H]2c3cc(C(=O)N4CCCC4)n(Cc4ccc(C(F)(F)F)nc4)c3C[C@H]2CN1C(=O)c1ccccc1 | 25.1 µM (inconclusive) |
| Cc1cc(SCC(=O)c2ccc(Br)cc2)cc(C)[o+]1 | 3.16 µM (inconclusive) |
| COc1ccc(C(=O)C(OC(=O)CNC(=O)c2ccco2)c2ccccc2)cc1 (stereo not drawn) | 35.5 µM (inconclusive) |
| Cc1ccc(SCc2n[nH]c3c2C(C(C)C)C(C#N)=C(N)O3)cc1 (stereo not drawn) | 0.00316 µM (inconclusive) |
| Cc1ccc(C(=O)NNC(=O)CSc2nnc(-c3ccncc3)n2-c2ccc(C)cc2)cc1 | 12.6 µM (inconclusive) |
| COc1ccc(NC(=O)OC(C)C)cc1 | 35.5 µM (inconclusive) |
| Cc1ccc2c(c1)N(CC(=O)NC1CCC(C)CC1)C(=O)CO2 (stereo not drawn) | 14.1 µM (inconclusive) |
| Cc1ccc(-c2ccc(=O)n(CC(=O)N3CCN(c4cccc(C)c4)C(C)C3)n2)cc1 (stereo not drawn) | 28.2 µM (inconclusive) |
| c1ccc(CCNCc2ccco2)nc1 | 2.51 µM (inconclusive) |
| CCOc1ccc(N2C(=O)CS/C2=N/NC(=O)COc2ccc3ccccc3c2)cc1 | 39.8 µM (inconclusive) |
| Cc1cccc([C@H](C)c2cnc[nH]2)c1C [DEXMEDETOMIDINE] | 12.6 µM (inconclusive) |

biological target: Cytochrome P450 2C9 (Homo sapiens, UniProt P11712); conditions: not given
Sequence (P11712 whole entry): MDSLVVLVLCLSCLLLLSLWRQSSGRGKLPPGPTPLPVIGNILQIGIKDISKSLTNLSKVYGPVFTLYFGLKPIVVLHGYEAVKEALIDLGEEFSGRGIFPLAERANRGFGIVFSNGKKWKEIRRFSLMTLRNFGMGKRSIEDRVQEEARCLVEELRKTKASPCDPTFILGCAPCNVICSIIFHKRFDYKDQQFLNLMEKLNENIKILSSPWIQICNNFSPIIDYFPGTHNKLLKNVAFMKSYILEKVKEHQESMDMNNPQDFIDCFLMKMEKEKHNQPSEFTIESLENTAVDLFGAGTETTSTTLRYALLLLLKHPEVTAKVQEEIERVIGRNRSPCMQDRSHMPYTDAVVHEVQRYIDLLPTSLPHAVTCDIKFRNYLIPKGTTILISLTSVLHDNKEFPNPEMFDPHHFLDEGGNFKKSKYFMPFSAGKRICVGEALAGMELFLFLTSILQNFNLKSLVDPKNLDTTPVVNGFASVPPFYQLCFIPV

| Structure (SMILES) | AC50 |
| --- | --- |
| COCc1c(C(=O)OCC(=O)N2c3ccccc3NC(=O)C2(C)C)oc2ccccc12 | 31.6 µM (inconclusive) |
| O=C(CSc1nc2ccccc2s1)c1sc2sc3ccccc3[n+]2c1O | 6.31 µM (inconclusive) |
| CCN1C(=O)[C@@H]2[C@H]3C(=CC[C@@H]2C1=O)C1(OCCCO1)[C@H]1O[C@@H]1[C@H]3O | 5.01 µM (inconclusive) |
| CCOC(=O)c1ccc(NC(=O)C2CCCO2)cc1 (stereo not drawn) | 0.0251 µM (inconclusive) |
| Cc1cc(C)c2nc3c(c([C@H](O)[C@@H]4CCCCN4)c2c1)CC/C3=C/c1ccc(Cl)cc1 | 1 µM (inconclusive) |
| O=S(=O)(c1ccccc1)c1cnn2c(C(F)(F)F)cc(-c3ccccc3)nc12 | 0.708 µM (inconclusive) |
| NC(=NOC(=O)Cc1ccc(-c2ccccc2)cc1)c1cccc([N+](=O)[O-])c1 | 10 µM (inconclusive) |
| COc1ccc(NC(=O)OC(C)C)cc1 | 14.1 µM (inconclusive) |
| Cc1ccc(-c2ccc(=O)n(CC(=O)N3CCN(c4cccc(C)c4)C(C)C3)n2)cc1 (stereo not drawn) | 20 µM (inconclusive) |
| CCOc1ccc(N2C(=O)CS/C2=N/NC(=O)COc2ccc3ccccc3c2)cc1 | 31.6 µM (inconclusive) |

biological target: T1, Cytochrome P450 1A2 (Homo sapiens, UniProt P05177); conditions: not given;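 note: PubChem cytochrome P450 panel assay, CYP1A2 panel member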
T1 sequence (P05177 whole entry): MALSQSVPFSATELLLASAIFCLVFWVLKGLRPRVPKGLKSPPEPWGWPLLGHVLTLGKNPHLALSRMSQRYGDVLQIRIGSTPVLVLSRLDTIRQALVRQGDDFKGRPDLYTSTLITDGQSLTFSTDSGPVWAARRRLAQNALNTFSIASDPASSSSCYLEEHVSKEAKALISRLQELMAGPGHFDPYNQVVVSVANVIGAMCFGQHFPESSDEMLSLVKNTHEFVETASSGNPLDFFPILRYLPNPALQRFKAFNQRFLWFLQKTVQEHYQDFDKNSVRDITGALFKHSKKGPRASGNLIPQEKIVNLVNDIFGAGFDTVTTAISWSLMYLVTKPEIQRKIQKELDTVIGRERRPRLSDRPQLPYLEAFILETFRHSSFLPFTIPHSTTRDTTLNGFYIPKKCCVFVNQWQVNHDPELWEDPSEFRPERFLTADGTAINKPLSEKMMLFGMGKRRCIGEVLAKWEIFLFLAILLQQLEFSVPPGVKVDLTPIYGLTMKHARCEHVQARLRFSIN

| Structure (SMILES) | AC50 |
| --- | --- |
| Cc1ccc(C(=N)c2ccccc2Cc2cccc3ccccc23)c2ccccc12 | 1 µM (inconclusive) |
| C#CCOC(=O)Nc1ccc(=O)n(Cc2c(Cl)cccc2Cl)c1 | 12.6 µM (inconclusive) |
| COc1ccc(C(=O)C(OC(=O)CNC(=O)c2ccco2)c2ccccc2)cc1 (stereo not drawn) | 31.6 µM (inconclusive) |
| Cc1ccc(-c2ccc(=O)n(CC(=O)N3CCN(c4cccc(C)c4)C(C)C3)n2)cc1 (stereo not drawn) | 20 µM (inconclusive) |
| c1ccc(CCNCc2ccco2)nc1 | 6.31 µM (inconclusive) |

tested on: Streptococcus; assay: Group A Streptococcus viability loss, dose response, counter-screen for streptokinase expression inhibitor project, luminescence, BacTiterGlo (AID 1915); type: functional, organism-based; conditions: not given;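 note: potency for reduction of bacterial viability or growth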

| Structure (SMILES) | EC50 |
| --- | --- |
| Cc1cc(/C=C2\C(=N)N3N=C(S(C)(=O)=O)SC3=NC2=O)c(C)n1Cc1ccccc1 | 21.1 µM (active) |
| COc1ccc(C(=O)OCC(=O)Nc2nnc(-c3ccccc3)o2)cc1 | 19.2 µM (active) |
